Laboratory results taken from patent US12606538B2, “Benzo[b]selenophene sting regulator, preparation method and use thereof” (CHINA PHARMACEUTICAL UNIVERSITY, priority 2021, dated 2026).

Columns and labels:
Format in all cases: cell-based
[1] = system: THP1 cells; assay: Interferon β induction assay based on THP1 cells (ELISA); conditions: Homo sapiens, THP-1, compound 20 μM, 3.5 h, read-out: Secretion of IFNβ in THP1 cells, effect relative to 2′,3′-cGAMP at 20 μM (%)
Experimental: Secreted cytokine IFNβ was determined by ELISA. THP1 cells were inoculated in a 96-well plate (there was no serum contained in an RPMI 1640 medium), such that the number of cells in each well ranged from 5×10^5 to 7×10^5. A DMSO stock solution of 10 mM was prepared from a compound to be tested, diluted with a culture medium to a target concentration to be added into the 96-well plate containing cells (the final concentration of said compound was 20 μM, and the final volume of each well was 200 μL), and cultured at 37° C. in 5% CO2 for 3.5 h. The cells were collected at 4° C. and centrifuged at 1,000 rpm for 20 mins, and supernate was collected for ELISA determination. There were three repeated wells set in the assay. The result was shown in the following tablet, with 2′,3′-cGAMP as a positive control, where the test result was represented as a percentage of activity relative to 2′,3′-cGAMP at a concentration of 20 μM.

[2] = system: RAW-Lucia cells; assay: Luciferase assay based on RAW-Lucia cells; conditions: 24 h at 37° C.
Experimental: (§1) THP1-dual™ (Invivogen: thpd-nfis) cells or RAW-Lucia™ (Invivogen: rawl-isg) cells were diluted using a culture medium, and 180 μL of cell suspension was sucked and inoculated in a 96-well plate, such that each well contain 1×10^5 cells. 20 μL of a compound to be tested was added into the 96-well plate (the final concentration of said compound was […], and the final volume of each well was […]) and cultured at 37° C. for 24 h. 10 μL of supernatant was sucked into a new 96-well white plate, and 50 μL of a QUANT-Luc reagent was added. After full and even mixing, a microplate reader was used immediately for determination. There were three repeated wells set in the assay. The test result was represented as agitation fold and calculated by (test well−blank well)/(negative well−blank well). The test result was in the following tablet, with 2′,3′-cGAMP as a positive control, where *** represented an agitation fold of 20 or more, ** represented an agitation fold of 10 to 20, and * represented an agitation fold of 1 to 10.

[3] = system: THP1-dual cells; assay: Luciferase assay based on THP1-dual cells; conditions: final concentration of compound 10 μL (so in the source), 24 h at 37° C.
Experimental: as §1

`COc1cc2cc(C(=O)C[C@@H](C)C(=O)O)[se]c2cc1OC` [I-3, R-4-(5,6-dimethoxybenzo[b]selenophene-2-yl)-2-methyl-4-oxo-butanoic acid] was tested, and the Emax at 20 µM [1] was 234%, the “Agitation activity in luciferase assay, RAW-Lucia (agitation fold)” value [2] was “*** (*** represented an agitation fold of 20 or more)” and the “Agitation activity in luciferase assay, THP1-dual (agitation fold)” value [3] was “*** (*** represented an agitation fold of 20 or more)”.
With `COc1cc2cc(C(=O)C[C@H](C)C(=O)O)[se]c2cc1OC` [I-4, S-4-(5,6-dimethoxybenzo[b]selenophene-2-yl)-2-methyl-4-oxo-butanoic acid] the Emax at 20 µM [1] was 201%, the “Agitation activity in luciferase assay, RAW-Lucia (agitation fold)” value [2] was “*** (*** represented an agitation fold of 20 or more)” and the “Agitation activity in luciferase assay, THP1-dual (agitation fold)” value [3] was “*** (*** represented an agitation fold of 20 or more)”.
In the case of `COc1ccc2[se]c(C(=O)CC(C)C(=O)O)cc2c1` (stereo not drawn) [I-5], the Emax at 20 µM [1] is reported as 59%, the “Agitation activity in luciferase assay, RAW-Lucia (agitation fold)” value [2] is reported as “* (* represented an agitation fold of 1 to 10)” and the “Agitation activity in luciferase assay, THP1-dual (agitation fold)” value [3] is reported as “* (* represented an agitation fold of 1 to 10)”.
In the case of `COc1ccc2cc(C(=O)CC(C)C(=O)O)[se]c2c1` (stereo not drawn) [I-6, 4-(6-dimethoxybenzo[b]selenophene-2-yl)-2-methyl-4-oxo-butanoic acid], the Emax at 20 µM [1] is reported as 15%, the “Agitation activity in luciferase assay, RAW-Lucia (agitation fold)” value [2] is reported as “* (* represented an agitation fold of 1 to 10)” and the “Agitation activity in luciferase assay, THP1-dual (agitation fold)” value [3] is reported as “* (* represented an agitation fold of 1 to 10)”.
With `COc1cc2[se]c(C(=O)CC(C)C(=O)O)cc2cc1O` (stereo not drawn) [I-7, 4-(5-hydroxyl-6-dimethoxybenzo[b]selenophene-2-yl)-2-methyl-4-oxo-butanoic acid] the Emax at 20 µM [1] was 75%, the “Agitation activity in luciferase assay, RAW-Lucia (agitation fold)” value [2] was “* (* represented an agitation fold of 1 to 10)” and the “Agitation activity in luciferase assay, THP1-dual (agitation fold)” value [3] was “** (** represented an agitation fold of 10 to 20)”.
For `CC(CC(=O)c1cc2cc3c(cc2[se]1)OCO3)C(=O)O` (stereo not drawn) [I-8, 2-methyl-4-oxo-4-(selenophene[2′,3′:4,5]benzo[1,2-d][1,3]dioxo-6-yl)butanoic acid], the Emax at 20 µM [1] was 20%, the “Agitation activity in luciferase assay, RAW-Lucia (agitation fold)” value [2] was “* (* represented an agitation fold of 1 to 10)” and the “Agitation activity in luciferase assay, THP1-dual (agitation fold)” value [3] was “* (* represented an agitation fold of 1 to 10)”.
`CCOc1cc2cc(C(=O)CC(C)C(=O)O)[se]c2cc1OC` (stereo not drawn) [I-9, 4-(5-ethoxy-6-dimethoxybenzo[b]selenophene-2-yl)-2-methyl-4-oxo-butanoic acid] was tested, and the Emax at 20 µM [1] was 96%, the “Agitation activity in luciferase assay, RAW-Lucia (agitation fold)” value [2] was “** (** represented an agitation fold of 10 to 20)” and the “Agitation activity in luciferase assay, THP1-dual (agitation fold)” value [3] was “** (** represented an agitation fold of 10 to 20)”.
With `COc1cc2[se]c(C(=O)CC(C)C(=O)O)cc2cc1OC(C)C` (stereo not drawn) [I-10, 4-(5-isopropoxy-6-dimethoxybenzo[b]selenophene-2-yl)-2-methyl-4-oxo-butanoic acid] the Emax at 20 µM [1] was 91%, the “Agitation activity in luciferase assay, RAW-Lucia (agitation fold)” value [2] was “** (** represented an agitation fold of 10 to 20)” and the “Agitation activity in luciferase assay, THP1-dual (agitation fold)” value [3] was “** (** represented an agitation fold of 10 to 20)”.
With `CCOC(=O)C(C)CC(=O)c1cc2cc(OC)c(OC)cc2[se]1` (stereo not drawn) [I-11, 4-(5,6-dimethoxybenzo[b]selenophene-2-yl)-2-methyl-4-oxo-ethyl butyrate] the Emax at 20 µM [1] was 9%, the “Agitation activity in luciferase assay, RAW-Lucia (agitation fold)” value [2] was “** (** represented an agitation fold of 10 to 20)” and the “Agitation activity in luciferase assay, THP1-dual (agitation fold)” value [3] was “* (* represented an agitation fold of 1 to 10)”.
`COc1cc2cc(C(=O)CC(C)C(=O)NO)[se]c2cc1OC` (stereo not drawn) [I-12, 4-(5,6-dimethoxybenzo[b]selenophene-2-yl)-N-hydroxyl-2-methyl-4-oxo-butyramide] was tested, and the Emax at 20 µM [1] was 11%, the “Agitation activity in luciferase assay, RAW-Lucia (agitation fold)” value [2] was “* (* represented an agitation fold of 1 to 10)” and the “Agitation activity in luciferase assay, THP1-dual (agitation fold)” value [3] was “* (* represented an agitation fold of 1 to 10)”.
`COc1cc2cc(C(=O)CC(C)C(N)=O)[se]c2cc1OC` (stereo not drawn) [I-13, 4-(5,6-dimethoxybenzo[b]selenophene-2-yl)-2-methyl-4-oxo-butyramide] was tested, and the Emax at 20 µM [1] was 6%, the “Agitation activity in luciferase assay, RAW-Lucia (agitation fold)” value [2] was “* (* represented an agitation fold of 1 to 10)” and the “Agitation activity in luciferase assay, THP1-dual (agitation fold)” value [3] was “* (* represented an agitation fold of 1 to 10)”.
For `CC[C@H](CC(=O)c1cc2cc(OC)c(OC)cc2[se]1)C(=O)O` [I-15, R-4-(5,6-dimethoxybenzo[b]selenophene-2-yl)-2-ethyl-4-oxo-butanoic acid], the Emax at 20 µM [1] was 2%, the “Agitation activity in luciferase assay, RAW-Lucia (agitation fold)” value [2] was “*** (*** represented an agitation fold of 20 or more)” and the “Agitation activity in luciferase assay, THP1-dual (agitation fold)” value [3] was “*** (*** represented an agitation fold of 20 or more)”.
`CC[C@@H](CC(=O)c1cc2cc(OC)c(OC)cc2[se]1)C(=O)O` [I-16, S-4-(5,6-dimethoxybenzo[b]selenophene-2-yl)-2-ethyl-4-oxo-butanoic acid] was tested, and the Emax at 20 µM [1] was 281%, the “Agitation activity in luciferase assay, RAW-Lucia (agitation fold)” value [2] was “*** (*** represented an agitation fold of 20 or more)” and the “Agitation activity in luciferase assay, THP1-dual (agitation fold)” value [3] was “*** (*** represented an agitation fold of 20 or more)”.
`COc1cc2cc(C(=O)CC(C(=O)O)C(C)C)[se]c2cc1OC` (stereo not drawn) [I-17, 4-(5,6-dimethoxybenzo[b]selenophene-2-yl)-2-isopropyl-4-oxo-butanoic acid] was tested, and the Emax at 20 µM [1] was 293%, the “Agitation activity in luciferase assay, RAW-Lucia (agitation fold)” value [2] was “** (** represented an agitation fold of 10 to 20)” and the “Agitation activity in luciferase assay, THP1-dual (agitation fold)” value [3] was “*** (*** represented an agitation fold of 20 or more)”.
`COc1cc2cc(C(=O)CC(C(=O)O)C3CC3)[se]c2cc1OC` (stereo not drawn) [I-18, 2-cyclopropyl-4-(5,6-dimethoxybenzo[b]selenophene-2-yl)-4-oxo-butanoic acid] was tested, and the Emax at 20 µM [1] was 277%, the “Agitation activity in luciferase assay, RAW-Lucia (agitation fold)” value [2] was “** (** represented an agitation fold of 10 to 20)” and the “Agitation activity in luciferase assay, THP1-dual (agitation fold)” value [3] was “*** (*** represented an agitation fold of 20 or more)”.
For `COCC(CC(=O)c1cc2cc(OC)c(OC)cc2[se]1)C(=O)O` (stereo not drawn) [I-19, 4-(5,6-dimethoxybenzo[b]selenophene-2-yl)-2-(methoxymethyl)-4-oxo-butanoic acid], the Emax at 20 µM [1] was 107%, the “Agitation activity in luciferase assay, RAW-Lucia (agitation fold)” value [2] was “** (** represented an agitation fold of 10 to 20)” and the “Agitation activity in luciferase assay, THP1-dual (agitation fold)” value [3] was “** (** represented an agitation fold of 10 to 20)”.
In the case of `CCCCC(CC(=O)c1cc2cc(OC)c(OC)cc2[se]1)C(=O)O` (stereo not drawn) [I-20, 2-(2-(5,6-dimethoxybenzo[b]selenophene-2-yl)-2-oxo-ethyl) hexanoic acid], the Emax at 20 µM [1] is reported as 132%, the “Agitation activity in luciferase assay, RAW-Lucia (agitation fold)” value [2] is reported as “** (** represented an agitation fold of 10 to 20)” and the “Agitation activity in luciferase assay, THP1-dual (agitation fold)” value [3] is reported as “** (** represented an agitation fold of 10 to 20)”.
